In paper PMC10762035, “Molecular basis of human trace amine-associated receptor 1 activation” (Nature Communications, 2024):
Substitutions are numbered along the chain they refer to. “And” between values parts separate entries of the source, which are not always exact repeats. Identical values can stand only once.

Experiments:
Type in all cases: cell-based
[1] = target: T1, β2AR-Nterm-hTA1-F112^3.41W (CryoEM Construct) (Homo sapiens, UniProt Q96RJ0, F112W); experiment: GloSensor cAMP accumulation assay, cryoEM construct;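 note: cells transiently co-transfected with the receptor construct and GloSensor cAMP biosensor, luminescence read after 30 min compound exposure at room temperature in the dark as cAMP accumulation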;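 for Normalized Luminescence Counts (N=2): normalized to the maximum response of β-PEA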
T1 construct: FLAG (N); 10xHis (N); TEV protease site (N); expressed in transfected cells; host or cells: HEK293T
T1 sequence (Q96RJ0 with tags, fused parts or gaps F112W): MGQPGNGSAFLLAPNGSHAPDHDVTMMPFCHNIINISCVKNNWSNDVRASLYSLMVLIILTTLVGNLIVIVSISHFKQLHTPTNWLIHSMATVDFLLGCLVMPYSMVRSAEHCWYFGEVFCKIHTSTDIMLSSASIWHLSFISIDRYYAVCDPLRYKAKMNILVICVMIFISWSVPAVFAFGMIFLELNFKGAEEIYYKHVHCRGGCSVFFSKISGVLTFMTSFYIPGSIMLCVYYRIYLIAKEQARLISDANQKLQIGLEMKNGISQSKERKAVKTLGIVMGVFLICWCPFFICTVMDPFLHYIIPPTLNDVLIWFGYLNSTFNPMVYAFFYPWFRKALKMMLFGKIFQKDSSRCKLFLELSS

hTA1 b2N = target: T2, hTA1 b2N (Homo sapiens, UniProt Q96RJ0); experiment: GloSensor cAMP accumulation assay, b2N construct; conditions: b2N, n=2
T2 construct: read by me as the first 25 residues of β2AR (N); expressed in transfected cells; host or cells: HEK293T
T2 sequence (Q96RJ0 with tags, fused parts or gaps): as the sequence (Q96RJ0 with tags, fused parts or gaps F112W) above, with W137F counted along it

hTA1 C88/178S = target: T3, hTA1 C88/178S (Homo sapiens, UniProt Q96RJ0, C178S/C88S); experiment: GloSensor cAMP accumulation assay, C88S/C178S double mutant; conditions: for Normalized Luminescence Counts (N=2): log[Compound], single replicate values
T3 construct: expressed in transfected cells; host or cells: HEK293T
T3 sequence (Q96RJ0 1-339 C88S/C178S): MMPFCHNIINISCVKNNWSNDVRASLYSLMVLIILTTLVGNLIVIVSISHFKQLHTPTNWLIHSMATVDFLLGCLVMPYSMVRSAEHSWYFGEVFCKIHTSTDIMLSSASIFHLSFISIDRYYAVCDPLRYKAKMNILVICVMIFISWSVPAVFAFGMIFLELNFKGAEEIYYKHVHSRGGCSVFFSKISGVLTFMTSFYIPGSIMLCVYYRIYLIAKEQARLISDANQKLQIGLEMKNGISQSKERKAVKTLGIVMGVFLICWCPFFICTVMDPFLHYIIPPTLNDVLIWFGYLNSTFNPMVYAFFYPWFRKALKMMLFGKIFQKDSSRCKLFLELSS

hTA1 S107C = target: T4, hTA1 S107C (Homo sapiens, UniProt Q96RJ0, S107C); experiment: GloSensor cAMP accumulation assay, S107C mutant;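 note: cells transiently co-expressing receptor and GloSensor biosensor, luminescence read after 30 min agonist exposure at room temperature, concentration-response fitted by nonlinear regression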
T4 construct: expressed in transfected cells; host or cells: HEK293T
T4 sequence (Q96RJ0 1-339 S107C): T3 sequence (Q96RJ0 1-339 C88S/C178S) with S88C, S107C, S178C

hTA1 T271A = target: T5, hTA1 T271A (Homo sapiens, UniProt Q96RJ0, T271A); experiment: GloSensor cAMP accumulation assay, T271A mutant
T5 construct: expressed in transfected cells; host or cells: HEK293T
T5 sequence (Q96RJ0 1-339 T271A): T3 sequence (Q96RJ0 1-339 C88S/C178S) with S88C, S178C, T271A

[2] = Cryo EM Construct minus WT average
[3] = Cryo EM Construct, mean of each independent experiment (3 replicates)
[4] = C88S, C178S, each row is one independent experiment, 3 replicates

Cc1c(F)cccc1[C@H]1COC(N)=N1 [Ro5263397]
ΔEmax values (each mutant value - WT average), Mean [1, 2]: 19.0137 and 21.294
ΔpEC50 values (each mutant value - WT average), Mean [1, 2]: -0.1667 and 0.1313
Emax values, Mean [1, 3]: -0.1667 and 0.1313
pEC50 values, Mean [1, 3]: 8.664 and 8.962
Normalized Luminescence Counts (N=2) ([1]; CryoEM Construct, log[Compound], M = -5, single replicates): 130.633 and 139.904 and 147.826 and 114.773
Span ± SEM (Emax normalized to β-PEA) ([1]; CryoEM Construct, n=2): 106.6 ± 2.69
pEC50 ± SEM ([1]; CryoEM Construct, n=2): 8.82 ± 0.06
EC50 ([1]; CryoEM Construct, n=2, read-out: EC50): 1.5 nM
Span ± SEM (Emax normalized to β-PEA) (hTA1 b2N): 78.31 ± 9.88
pEC50 ± SEM (hTA1 b2N): 9.18 ± 0.09
EC50 (hTA1 b2N; read-out: EC50): 0.66 nM
Span ± SEM (Emax normalized to β-PEA) (hTA1 C88/178S; C88/178S, n=2): 98.55 ± 7.35
pEC50 ± SEM (hTA1 C88/178S; C88/178S, n=2): 8.59 ± 0.09
EC50 (hTA1 C88/178S; C88/178S, n=2, read-out: EC50): 2.55 nM
pEC50 values, Mean (hTA1 C88/178S; [4]): 8.403 and 8.782
ΔEmax values (each mutant value - WT average), Mean (hTA1 C88/178S; [4]): 4.495 and 19.1933
ΔpEC50 values (each mutant value - WT average), Mean (hTA1 C88/178S; [4]): -0.428 and -0.04873
Normalized Luminescence Counts (N=2) (hTA1 C88/178S; C88S, C178S, M = -5): 100.242 and 99.2245 and 97.2457 and 143.648 and 172.345 and 97.883
Normalized Luminescence Counts (N=2) (hTA1 C88/178S; C88S, C178S, M = -5.522): 90.9136 and 85.0903 and 89.8394 and 123.862 and 148.33 and 92.2945
Normalized Luminescence Counts (N=2) (hTA1 C88/178S; C88S, C178S, M = -6): 90.1221 and 88.8217 and 95.4931 and 103.622 and 111.174 and 99.9975
Normalized Luminescence Counts (N=2) (hTA1 C88/178S; C88S, C178S, M = -6.522): 99.5072 and 94.7581 and 94.2493 and 122.049 and 117.367 and 101.508
Normalized Luminescence Counts (N=2) (hTA1 C88/178S; C88S, C178S, M = -7): 91.3094 and 97.4719 and 93.062 and 116.159 and 110.872 and 102.263
Normalized Luminescence Counts (N=2) (hTA1 C88/178S; C88S, C178S, M = -7.522): 83.1115 and 82.2069 and 77.6274 and 88.2165 and 117.82 and 93.3518
Normalized Luminescence Counts (N=2) (hTA1 C88/178S; C88S, C178S, M = -8): 58.8572 and 57.8961 and 57.8396 and 93.8049 and 106.945 and 88.8206
Normalized Luminescence Counts (N=2) (hTA1 C88/178S; C88S, C178S, M = -8.522): 53.4862 and 36.4686 and 47.8325 and 84.7426 and 92.7477 and 67.222
Normalized Luminescence Counts (N=2) (hTA1 C88/178S; C88S, C178S, M = -9): 25.2178 and 28.61 and 25.7832 and 45.3213 and 51.816 and 46.9828
Normalized Luminescence Counts (N=2) (hTA1 C88/178S; C88S, C178S, M = -9.522): 8.822 and 11.8186 and 9.84 and 21.1551 and 21.4571 and 31.5768
Normalized Luminescence Counts (N=2) (hTA1 C88/178S; C88S, C178S, M = -10): 5.826 and 5.4299 (2×) and 35.5038 (2×) and 37.3163
Normalized Luminescence Counts (N=2) (hTA1 C88/178S; C88S, C178S, M = -10.522): 1.755 and 2.038 and 3.395 and 3.6345 and 2.124 and 3.483
Normalized Luminescence Counts (N=2) (hTA1 C88/178S; C88S, C178S, M = -11): 2.49 and 1.529 and 1.585 and 16.4728 and 32.9361 and 27.0456
Normalized Luminescence Counts (N=2) (hTA1 C88/178S; C88S, C178S, M = -11.522): 0.5677 and 1.529 and 0.7373 and 0.9158 and 1.369 and 1.973
Normalized Luminescence Counts (N=2) (hTA1 C88/178S; C88S, C178S, M = -12): 0.7939 and 1.472 and 1.1331 and 4.692 and 7.713 and 6.504
Normalized Luminescence Counts (N=2) (hTA1 C88/178S; C88S, C178S, M = -12.522): 1.698 and 0.6243 and 0.7373 and -0.4436 and 0.7648 and -1.803
Emax values, Mean (hTA1 C88/178S; C88S, C178S, normalized (β-PEA = 100), each row is one independent experiment, 3 replicates): 91.1984 and 105.897
decrease in potency vs wild type (hTA1 S107C; S107C): approximately 100 fold
ΔEmax values (each mutant value - WT average) (hTA1 S107C; S107C mutant minus WT average): 21.9095
pEC50 values, Mean (hTA1 S107C; S107C mutant, each line an independent experiment, 3 replicates): 7.847 and 7.402
Emax values, Mean (hTA1 S107C; S107C mutant, β-PEA = 100, each line an independent experiment, 3 replicates): 108.613 and 99.8921
Span ± SEM (Emax normalized to β-PEA) (hTA1 S107C; S107C, n=2): 112.19
pEC50 ± SEM (hTA1 S107C; S107C, n=2): 6.61 ± 0.80
EC50 (hTA1 S107C; S107C, n=2, read-out: EC50): 248 nM
ΔpEC50 values (each mutant value - WT average), Mean (hTA1 T271A; T271A mutant minus WT average, Figure 5B): -0.5707 and -0.4899
pEC50 values, Mean (hTA1 T271A; T271A mutant, Figure 5B, each row one independent experiment (3 replicates)): 8.26 and 8.341
Emax values, Mean (hTA1 T271A; T271A mutant, Figure 5B, β-PEA = 100, each row one independent experiment (3 replicates)): 76.005 and 87.3949
Span ± SEM (Emax normalized to β-PEA) (hTA1 T271A; T271A, n=2): 81.70 ± 5.69
pEC50 ± SEM (hTA1 T271A; T271A, n=2): 8.3 ± 0.07
EC50 (hTA1 T271A; T271A, n=2, read-out: EC50): 5 nM
